Measured values as given in article PMC3847553, “Kinetic properties of “dual” orexin receptor antagonists at OX1R and OX2R orexin receptors” (Frontiers in Neuroscience, 2013).
Like-named read-outs stand apart in the source and are kept apart here.

Assays:
mouse OX1R = target: T1, mouse OX1R (Mus musculus, UniProt P58307); test: FLIPR orexin A-stimulated calcium accumulation, mouse OX1R; format: cell-based; conditions: HEK cells
T1 construct: expressed in transfected cells; host or cells: HEK; cells from GNF, San Diego
T1 sequence (P58307 1-416): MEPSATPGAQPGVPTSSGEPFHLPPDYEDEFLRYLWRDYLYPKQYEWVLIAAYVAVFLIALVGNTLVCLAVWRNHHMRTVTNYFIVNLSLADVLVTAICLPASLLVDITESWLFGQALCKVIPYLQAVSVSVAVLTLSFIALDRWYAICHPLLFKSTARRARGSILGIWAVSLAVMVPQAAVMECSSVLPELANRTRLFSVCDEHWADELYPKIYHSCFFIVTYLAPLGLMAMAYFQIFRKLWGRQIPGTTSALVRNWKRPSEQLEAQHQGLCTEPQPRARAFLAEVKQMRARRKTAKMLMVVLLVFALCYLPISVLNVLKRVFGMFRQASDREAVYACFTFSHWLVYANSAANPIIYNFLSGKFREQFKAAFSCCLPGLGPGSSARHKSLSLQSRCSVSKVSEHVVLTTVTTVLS
Procedure: (§1) Chinese Hamster Ovary (CHO) cells stably transfected with the cDNA encoding the human OX1R (CHO-hOX1) or OX2R (CHO-hOX2) were used (kindly provided by T. Cremer and Dr. S. Geisse, NIBR Basel, Switzerland). For measurements of calcium accumulation using FLIPR® (Fluorescent Imaging Plate Reader) assay, CHO or Human Embryonic Kidney (HEK) cells stably expressing mouse, rat or human OX1R or OX2R (kindly provided by Dr. A. Chen, GNF, San Diego, CA, USA) were used. All cells were cultured in 1:1 Dulbecco's Modified Eagle's Medium (DMEM)/Ham's F12 Nutrients Mixture (F12) supplemented with 10% (v/v) fetal bovine serum (FBS), 100 μ/ml (100 g/ml)/streptomycin (100 μg/ml), Fungizone (250 μg/ml), and Geneticin (G418, 50 mg/ml). Cells were maintained in a humidified incubator at 37°C in 5% CO2. For crude cell membrane preparations, cells were washed and harvested in 10 mM HEPES (pH 7.5), and centrifuged at 4°C for 5 min at 2500 g. The cell pellet was either stored at −80°C or used directly.
(§2) Cells expressing either human, rat or mouse OX1R or OX2R were seeded at 8,000 cells/well in black 384 well clear bottom plates and incubated overnight at 37°C. The following day, medium was discarded and cells loaded with 50 μ l of 1 mM Fluo-4 AM (Invitrogen F14202) in dimethyl sulfoxide in working buffer (Hanks' balanced salt solution, 10 mM HEPES) and incubated for 60 min at 37°C. The loading buffer was removed and cells were washed with 100 μ l working buffer containing […], 0.1% BSA, and 2.5 mM Probenecid (pH 7.4) to remove the excess Fluo-4 AM. […] The assay plate was then transferred to the Molecular Devices-FLIPR384. The baseline calcium signal was recorded for 10 s, then the antagonist of interest was injected (10 μl at 3 times the final concentration) and the calcium signal recorded every second for 1 min, then every 2 s 40 times. Plates were then incubated at room temperature for 30 min, 1, 2, or 4 h.

rat OX2R = target: T2, rat OX2R (Rattus norvegicus, UniProt P56719); test: FLIPR orexin A-stimulated calcium accumulation, rat OX2R; format: cell-based; conditions: HEK cells
T2 sequence (P56719 1-460): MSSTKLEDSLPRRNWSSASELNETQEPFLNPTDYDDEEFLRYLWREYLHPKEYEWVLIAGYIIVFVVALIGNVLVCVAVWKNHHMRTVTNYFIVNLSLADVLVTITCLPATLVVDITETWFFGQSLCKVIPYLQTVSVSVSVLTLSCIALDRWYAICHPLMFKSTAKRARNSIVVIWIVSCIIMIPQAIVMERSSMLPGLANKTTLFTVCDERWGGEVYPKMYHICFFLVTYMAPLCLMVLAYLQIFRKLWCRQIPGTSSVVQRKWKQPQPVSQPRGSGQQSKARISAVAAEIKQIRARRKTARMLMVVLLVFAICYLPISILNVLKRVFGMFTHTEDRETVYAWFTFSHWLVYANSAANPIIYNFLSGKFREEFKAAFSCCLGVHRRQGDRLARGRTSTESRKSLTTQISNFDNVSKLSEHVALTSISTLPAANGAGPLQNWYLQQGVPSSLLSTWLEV
Excerpt: as §1, with “All cells were cultured in 1:1 Dulbecco's Modified Eagle's Medium (DMEM)/Ham's F12 Nutrients Mixture (F12) supplemented with 10% (v/v) fetal bovine serum (FBS), 100 μ/ml (100 g/ml)/streptomycin (100 μg/ml), Fungizone (250 μg/ml), and Geneticin (G418, 50 mg/ml).” left out
as §2, with “times.” for “times. Plates were then incubated at room temperature for 30 min, 1, 2, or 4 h.”

[1] = pKi, antagonist incubation 30 min
[2] = antagonist incubation 30 min, read-out: pKi (converted)
[3] = antagonist incubation 1 h, read-out: pKi (converted)
[4] = antagonist incubation 2 h, read-out: pKi (converted)
[5] = antagonist incubation 4 h, read-out: pKi (converted)

Row | SMILES | Ki (mouse OX1R; [1]) [nM] | Ki (mouse OX1R; pKi, antagonist incubation 1 h) [nM] | Ki (mouse OX1R; pKi, antagonist incubation 2 h) [nM] | Ki (mouse OX1R; pKi, antagonist incubation 4 h) [nM] | Ki (rat OX2R; [2]) [nM] | Ki (rat OX2R; [3]) [nM] | Ki (rat OX2R; [4]) [nM] | Ki (rat OX2R; [5]) [nM] | Ki (mouse OX1R; [2]) [nM] | Ki (mouse OX1R; [3]) [nM] | Ki (mouse OX1R; [4]) [nM] | Ki (mouse OX1R; [5]) [nM] | Ki (rat OX2R; [1]) [nM] | Ki (rat OX2R; pKi, antagonist incubation 1 h) [nM] | Ki (rat OX2R; pKi, antagonist incubation 2 h) [nM] | Ki (rat OX2R; pKi, antagonist incubation 4 h) [nM]
1 | CNC(=O)[C@@H](c1ccccc1)N1CCc2cc(OC)c(OC)cc2[C@@H]1CCc1ccc(C(F)(F)F)cc1 [Almorexant] | 18.6 | 23.4 | 33.9 | 38.9 | 5.62 | 2.24 | 1.02 | 0.661 | – | – | – | – | – | – | – | –
2 | Cc1ccc(-c2ncccn2)c(C(=O)N2C[C@H](COc3ccc(F)cn3)CC[C@H]2C)c1 [Filorexant] | – | – | – | – | 0.741 | 0.417 | 0.251 | 0.178 | 5.25 | 4.07 | 6.61 | 5.89 | – | – | – | –
3 | COc1ccnc(N2CCC3(CCCN(Cc4c[nH]c5ccccc45)C3=O)CC2)n1 [IPSU, 2-((1H-Indol-3-yl)methyl)-9-(4-methoxypyrimidin-2-yl)-2,9-diazaspiro[5.5]undecan-1-one] | – | – | – | – | 23.4 | 28.2 | 24 | 28.2 | 331 | 490 | 288 | 324 | – | – | – | –
4 | Cc1nc(C(=O)N2CCCC[C@H]2CNC(=O)c2cccc3occc23)c(-c2ccc(F)cc2)s1 [SB-649868] | – | – | – | – | 0.457 | 0.316 | 0.155 | 0.141 | 0.158 | 0.427 | 0.0407 | 0.0468 | – | – | – | –
5 | Cc1ccc(-n2nccn2)c(C(=O)N2CCN(c3nc4cc(Cl)ccc4o3)CC[C@H]2C)c1 [Suvorexant] | 1.26 | 1.05 | 0.933 | 1.02 | – | – | – | – | – | – | – | – | 1.95 | 0.871 | 0.603 | 0.427
